According to US12459914B2, “Compounds and compositions for the treatment of tumors” (FONDAZIONE ISTITUTO ITALIANO DI TECNOLOGIA, priority 2019, dated 2025):

What was measured:
[1] = biological target: T1, BRC4/RAD51 interaction (Homo sapiens, UniProt Q06609); test: Competitive ELISA assay, disruption of BRC4/RAD51 interaction; type: binding; conditions: human Rad51, biotinylated BRC4 peptide
T1 construct: purchased Creative Biomart (Rad51); Life Technologies (BRC4 peptide)
T1 sequence (Q06609 1-339): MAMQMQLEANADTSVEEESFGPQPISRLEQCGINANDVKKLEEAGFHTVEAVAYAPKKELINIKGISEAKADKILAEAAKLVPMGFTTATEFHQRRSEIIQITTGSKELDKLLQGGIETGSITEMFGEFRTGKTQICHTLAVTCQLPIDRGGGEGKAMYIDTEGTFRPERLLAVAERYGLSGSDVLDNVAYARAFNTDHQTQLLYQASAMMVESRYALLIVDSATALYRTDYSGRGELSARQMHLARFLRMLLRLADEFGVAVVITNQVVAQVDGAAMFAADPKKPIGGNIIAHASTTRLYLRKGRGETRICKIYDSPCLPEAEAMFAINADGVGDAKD
Protocol: A competitive ELISA screening assay using biotinylated BRC4 peptide to disrupt the BRC4/RAD51 interaction was performed by modifying the method described by Rajendra et al. (Nucleic Acids Res. 38 (2010) 82-96). BRC4-biotinylated peptide (N-term Biotin[…] from Life Technologies) was used to coat 384-well plates (Nunc). After washing with PBS containing 0.05% Tween-20 (PBST), and blocking with the solution BSA 1%/PBST, overnight hybridization with human Rad51 protein (NP_002866 Creative Biomart, NY) was performed. Test compounds were added in dose-response from […] in triplicate with constant DMSO 1%. Antibody raised against Rad51 (Millipore) and HRP-secondary antibody staining to develop the 3,30,5,50-tetramethyllbenzidine signal (Sigma) quenched with 1M HCl was used as the assay readout. Colorimetric measure was read on Victor5 (PerkinElmer) plate Reader. BRC4 and Rad51 were included in the assay as positive control. Results were analyzed using GraphPad Software.

[2] = tested on: BxPC-3 cells; test: Cell viability assay (CellTiter Glo); type: cell-based; conditions: Homo sapiens, 72 h
Protocol: BxPC-3 cells were grown in RPMI 1640 containing 10% FBS, 100 U/ml penicillin/streptomycin, 2 mM glutamine. All media and supplements were from Sigma-Aldrich. Cultures were routinely tested for Mycoplasma contamination. Treatments (Olaparib and BRCA2-Rad51 disruptors) were administered in culture medium supplemented with 0.6% DMSO. The same amount of DMSO was added to the control, untreated cultures.
Cell viability was assessed by CellTiter Glo, Luminescent Cell Viability Assay. Briefly, BxPC-3 cells (1×10^4/well) were plated in white 96-well plates with clear bottom and treated for 72 h with olaparib (10 μM) or with the BRCA2-Rad51 disruptors, given alone or in combination. After treatments, the plate was allowed to equilibrate at room temperature for 30 min and the CellTiter-Glo reactive was directly added to each well. The plate was kept on a shaker for 2 min to induce cell lysis and its luminescence was measured by using a Fluoroskan Ascent FL reader (Labsystems) using manufacturer's instructions.

| Structure (SMILES) | EC50 [1] [µM] | EC50 [2] [µM] |
| --- | --- | --- |
| O=C(O)CCC(=O)N1N=C(c2c(-c3ccccc3)c3cc(Cl)ccc3[nH]c2=O)CC1c1ccc(Br)cc1 (stereo not drawn) [d.8, 4-[3-(4-bromophenyl)-5-(6-chloro-2-oxo-4-phenyl-1H-quinolin-3-yl)-3,4-dihydropyrazol-2-yl]-4-oxo-butanoic acid] | 16 | 48 |
| CC(=O)N1N=C(c2c(-c3ccccc3)c3cc(Cl)ccc3[nH]c2=O)CC1c1ccc(Br)cc1 (stereo not drawn) [d.9, 3-[2-acetyl-3-(4-bromophenyl)-3,4-dihydropyrazol-5-yl]-6-chloro-4-phenyl-1H-quinolin-2-one] | 38 | 18 |
| COc1ccc(C2CC(c3c(-c4ccccc4)c4cc(Cl)ccc4[nH]c3=O)=NN2C(=O)CCC(=O)O)cc1 (stereo not drawn) [d.11, 4-[5-(6-chloro-2-oxo-4-phenyl-1H-quinolin-3-yl)-3-(4-methoxyphenyl)-3,4-dihydropyrazol-2-yl]-4-oxo-butanoic acid] | > 100 | > 50 |
| O=C(O)CCC(=O)N1N=C(c2c(-c3ccccc3)c3cc(Cl)ccc3[nH]c2=O)CC1c1ccc(C(F)(F)F)cc1 (stereo not drawn) [d.14, 4-[5-(6-chloro-2-oxo-4-phenyl-1H-quinolin-3-yl)-3-[4-(trifluoromethyl)phenyl]-3,4-dihydropyrazol-2-yl]-4-oxo-butanoic acid] | 29 | 50 |
| CC(=O)N1N=C(c2c(-c3ccccc3)c3cc(Cl)ccc3[nH]c2=O)CC1c1ccc(C(F)(F)F)cc1 (stereo not drawn) [d.15, 3-[2-acetyl-3-[4-(trifluoromethyl)phenyl]-3,4-dihydropyrazol-5-yl]-6-chloro-4-phenyl-1H-quinolin-2-one] | > 100 | 11.4 |
| CC(C)(C)c1ccc(C2CC(c3c(-c4ccccc4)c4cc(Cl)ccc4[nH]c3=O)=NN2C(=O)CCC(=O)O)cc1 (stereo not drawn) [d.16, 4-[3-(4-tert-butylphenyl)-5-(6-chloro-2-oxo-4-phenyl-1H-quinolin-3-yl)-3,4-dihydropyrazol-2-yl]-4-oxo-butanoic acid] | > 100 | 71.2 |
| CC(=O)N1N=C(c2c(-c3ccccc3)c3cc(Cl)ccc3[nH]c2=O)CC1c1ccc(C(C)(C)C)cc1 (stereo not drawn) [d.17, 3-[2-acetyl-3-(4-tert-butylphenyl)-3,4-dihydropyrazol-5-yl]-6-chloro-4-phenyl-1H-quinolin-2-one] | 15 | 15 |
| COc1ccc(C2CC(c3c(-c4ccccc4)c4cc(Cl)ccc4[nH]c3=O)=NN2C(=O)CCC(=O)O)cc1F (stereo not drawn) [d.18, 4-[5-(6-chloro-2-oxo-4-phenyl-1H-quinolin-3-yl)-3-(3-fluoro-4-methoxy-phenyl)-3,4-dihydropyrazol-2-yl]-4-oxo-butanoic acid] | > 100 | 73 |
| COc1ccc(-c2c(C3=NN(C(=O)CCC(=O)O)C(c4ccc(F)cc4)C3)c(=O)[nH]c3ccc(Cl)cc23)cc1 (stereo not drawn) [d.19, 4-[5-[6-chloro-4-(4-methoxyphenyl)-2-oxo-1H-quinolin-3-yl]-3-(4-fluorophenyl)-3,4-dihydropyrazol-2-yl]-4-oxo-butanoic acid] | > 100 | 76 |
| O=C(O)CCC(=O)N1N=C(c2c(-c3ccccc3)c3cc(Cl)ccc3[nH]c2=O)CC1c1ccco1 (stereo not drawn) [d.20, 4-[5-(6-chloro-2-oxo-4-phenyl-1H-quinolin-3-yl)-3-(2-furyl)-3,4-dihydropyrazol-2-yl]-4-oxo-butanoic acid] | > 100 | > 100 |
| CC(=O)N1N=C(c2c(-c3ccccc3)c3cc(Cl)ccc3[nH]c2=O)CC1c1ccco1 (stereo not drawn) [d.21, 3-[2-acetyl-3-(2-furyl)-3,4-dihydropyrazol-5-yl]-6-chloro-4-phenyl-1H-quinolin-2-one] | > 100 | 23 |
| CC(=O)N1N=C(c2c(-c3ccccc3)c3cc(Cl)ccc3[nH]c2=O)CC1c1ccc2c(ccn2C)c1 (stereo not drawn) [d.23, 3-[2-acetyl-3-(1-methylindol-5-yl)-3,4-dihydropyrazol-5-yl]-6-chloro-4-phenyl-1H-quinolin-2-one] | 18 | 4.8 |
| CCn1ccc2cc(C3CC(c4c(-c5ccccc5)c5cc(Cl)ccc5[nH]c4=O)=NN3C(=O)CCC(=O)O)ccc21 (stereo not drawn) [d.24, 4-[5-(6-chloro-2-oxo-4-phenyl-1H-quinolin-3-yl)-3-(1-ethylindol-5-yl)-3,4-dihydropyrazol-2-yl]-4-oxo-butanoic acid] | 10 | > 40 |
| Cn1ncc2cc(C3CC(c4c(-c5ccccc5)c5cc(Cl)ccc5[nH]c4=O)=NN3C(=O)CCC(=O)O)ccc21 (stereo not drawn) [d.26, 4-[5-(6-chloro-2-oxo-4-phenyl-1H-quinolin-3-yl)-3-(1-methylindazol-5-yl)-3,4-dihydropyrazol-2-yl]-4-oxo-butanoic acid] | 13 | > 50 |
| CC(=O)N1N=C(c2c(-c3ccccc3)c3cc(Cl)ccc3[nH]c2=O)CC1c1ccc2c(cnn2C)c1 (stereo not drawn) [d.27, 3-[2-acetyl-3-(1-methylindazol-5-yl)-3,4-dihydropyrazol-5-yl]-6-chloro-4-phenyl-1H-quinolin-2-one] | 9 | 21 |
| Cn1cc2cc(C3CC(c4c(-c5ccccc5)c5cc(Cl)ccc5[nH]c4=O)=NN3C(=O)CCC(=O)O)ccc2n1 (stereo not drawn) [d.28, 4-[5-(6-chloro-2-oxo-4-phenyl-1H-quinolin-3-yl)-3-(2-methylindazol-5-yl)-3,4-dihydropyrazol-2-yl]-4-oxo-butanoic acid] | > 100 | > 100 |
| CCn1cc2cc(C3CC(c4c(-c5ccccc5)c5cc(Cl)ccc5[nH]c4=O)=NN3C(=O)CCC(=O)O)ccc2n1 (stereo not drawn) [d.29, 4-[5-(6-chloro-2-oxo-4-phenyl-1H-quinolin-3-yl)-3-(2-ethylindazol-5-yl)-3,4-dihydropyrazol-2-yl]-4-oxo-butanoic acid] | 28 | > 50 |
| CCn1cc2cc(C3CC(c4c(-c5ccccc5)c5cc(Cl)ccc5[nH]c4=O)=NN3C(C)=O)ccc2n1 (stereo not drawn) [d.30, 3-[2-acetyl-3-(2-ethylindazol-5-yl)-3,4-dihydropyrazol-5-yl]-6-chloro-4-phenyl-1H-quinolin-2-one] | > 100 | 16.8 |
| CCn1ncc2cc(C3CC(c4c(-c5ccccc5)c5cc(Cl)ccc5[nH]c4=O)=NN3C(=O)CCC(=O)O)ccc21 (stereo not drawn) [d.31, 4-[5-(6-chloro-2-oxo-4-phenyl-1H-quinolin-3-yl)-3-(1-ethylindazol-5-yl)-3,4-dihydropyrazol-2-yl]-4-oxo-butanoic acid] | > 100 | > 50 |
| CCCn1ncc2cc(C3CC(c4c(-c5ccccc5)c5cc(Cl)ccc5[nH]c4=O)=NN3C(=O)CCC(=O)O)ccc21 (stereo not drawn) [d.33, 4-[5-(6-chloro-2-oxo-4-phenyl-1H-quinolin-3-yl)-3-(1-propylindazol-5-yl)-3,4-dihydropyrazol-2-yl]-4-oxo-butanoic acid] | > 100 | > 100 |
| CCCn1cc2cc(C3CC(c4c(-c5ccccc5)c5cc(Cl)ccc5[nH]c4=O)=NN3C(=O)CCC(=O)O)ccc2n1 (stereo not drawn) [d.35, 4-[5-(6-chloro-2-oxo-4-phenyl-1H-quinolin-3-yl)-3-(2-propylindazol-5-yl)-3,4-dihydropyrazol-2-yl]-4-oxo-butanoic acid] | > 100 | 62.6 |
| O=C(O)CCC(=O)N1N=C(c2c(-c3ccccc3)c3cc(Cl)ccc3[nH]c2=O)CC1c1ccc(-c2ccc(F)cc2)cc1 (stereo not drawn) [d.36, 4-[5-(6-chloro-2-oxo-4-phenyl-1H-quinolin-3-yl)-3-[4-(4-fluorophenyl)phenyl]-3,4-dihydropyrazol-2-yl]-4-oxo-butanoic acid] | 13 | 31 |
| O=C(O)CCC(=O)N1N=C(c2c(-c3ccccc3)c3cc(Cl)ccc3[nH]c2=O)CC1c1ccc(-c2ccc(Cl)cc2)cc1 (stereo not drawn) [d.37, 4-[5-(6-chloro-2-oxo-4-phenyl-1H-quinolin-3-yl)-3-[4-(4-chlorophenyl)phenyl]-3,4-dihydropyrazol-2-yl]-4-oxo-butanoic acid] | 25 | 41.5 |
| CC(=O)N1N=C(c2c(-c3ccccc3)c3cc(Cl)ccc3[nH]c2=O)CC1c1ccc(-c2ccc(Cl)cc2)cc1 (stereo not drawn) [d.38, 3-[2-acetyl-3-[4-(4-chlorophenyl)phenyl]-3,4-dihydropyrazol-5-yl]-6-chloro-4-phenyl-1H-quinolin-2-one] | 45 | 18.8 |
